Entries after “also recorded” stand apart in the source; their conditions may differ.
Assays:
Assay type in all cases: cell-based, human
HD-56CAG neuruloids [1] = test: HD neuruloid phenotype reversal (AI-scored phenotypic rescue); conditions: for potency (EC50) in rescuing HD neuruloids: dose-dependent test of BRD9 inhibitors, FIG. 9A
[2] = test system: expanded HTT and total HTT; test: HTT levels in HD neuruloid lysates, ELISA-based meso scale discovery (MSD) electrochemiluminescence assay; conditions: for HTT levels reduction ability (expanded HTT and total HTT): 1 μM and 5 μM, versus DMSO control
Procedure: We therefore repeated our protocol for the formation of HD neuruloids in two genetic backgrounds: 56CAG and 72CAG and treated with the 5 BRD inhibitors disclosed in FIG. 9 at two concentrations: 1 uM and 5 uM. At the end of the differentiation protocol, neuruloids lysates were frozen and later analyzed for their HTT contents. Both expanded HTT levels and total HTT levels (expanded+regular) were quantified through ELISA-based meso scale discovery (MSD) electrochemiluminescence assay.
HD neuruloids were created in two genetic backgrounds: 56CAG and 72CAG; and treated with the 5 BRD inhibitors disclosed in FIG. 10 at two concentrations: 1 μM and 5 μM. At the end of the differentiation protocol, neuruloid lysates were analyzed for their HTT contents. Both expanded HTT levels and total HTT levels (expanded+regular) were quantified through ELISA-based meso scale discovery (MSD) electrochemiluminescence assay.

HD-56CAG gastruloids = test: HD gastruloid SOX17+ area rescue; conditions: 1 μM; 48 hrs CHIR and Activin
Procedure: BRD inhibitors were tested to determine whether they were able to rescue another HD phenotype in human gastruloids. When human embryonic stem cell colonies are stimulated for 48 hrs with CHIR and Activin a primitive-streak like population, SOX17+, is induced at the periphery (see FIG. 12a). Moreover, in HD gastruloids made from the HD-56CAG cells, the SOX17+ domain at the periphery is greatly expanded. This effect is even more pronounced when using a null HTT−/− cell line, which supports the findings that the HD mutation is in fact a loss of function mutation in a developmental context, as it phenocopies the absence of the protein.
Gastruloid induction: Using the protocol for coating micropatterned chips. after the final wash in PBS+/+, 8×10^5 cells were seeded on each coverslip in a defined volume of MEF-CM supplemented with 20 ng/ml bFGF (R&D Systems), 10 μM ROCK inhibitor (Y-27632, Abcam), 1× Penicillin-streptomycin (Thermo Fisher Scientific), 100 μg/ml Normocin (Invivogen) and left unperturbed for 10 minutes to ensure homogenous distribution across the patterns. ROCK inhibitor was removed from the medium 3 hours after seeding and cells were induced the following day with 50 ng/ml BM P4 (R&D Systems), 2 μM IWP2 (Stemgent), 6 μM CHIR99021 (EMD Millipore), 100 ng/ml ACTIVIN (R&D Systems) and small molecule treatments. Samples were fixed 48 hours later and analyzed by immunofluorescence.

HD-56CAG neuruloids [3] = test: HD neuruloid phenotype reversal (AI-scored phenotypic rescue); conditions: for rescue of HD neuruloids to the WT configuration: FIG. 10; for rescue of HD neuruloids to the WT configuration / rescue of HD neuruloid phenotype, primary screen images: qualitative; for hit call in panel of BRD inhibitors (rescue efficacy above and toxicity below threshold): single concentration of 10 μM, 96 well plates, same hit criteria as primary screen; for rescue of HD neuruloid phenotype, primary screen images: 10 μM, staining DAPI, PAX6, phalloidin
Procedure: Micropatterned cell culture on chips and neuruloid induction: Micropatterned glass coverslips (CYTOOCHIPS Arena A, Arena 500A, Arena EMB A) were first coated with 10 μg ml^−1 recombinant Laminin-521 (BioLamina, LN521-03) diluted in PBS+/+(Gibco) for 3 h at 37° C. Micropatterns were placed face-up onto a Parafilm that was seated in a 10 cm dish, then 800 μl of laminin solution was added to the micropattern. After 3 h at 37° C., the coated micropattern was transferred to a 35 mm dish with 5 ml of PBS+/+. Laminin was removed with six serial dilutions in PBS+/+(dilution 1:4) before two complete washes in PBS+/+. Then the coated micropattern was kept in PBS+/+ at 37° C. Cells were seeded as follows: cells growing in MEF-CM on culture dish were washed once with PBS−/− (Gibco), then treated with accutase (Stem Cell Technologies) for 5 min. Cells were then triturated with a pipette to ensure single cell suspension and accutase was diluted out with 4× HUESM medium supplemented with 20 ng ml^−1 bFGF and ROCK inhibitor, Y27632 (10 μM; Abcam ab120129). Cells were further diluted with the same medium and 5×10^5 (or as indicated) cells in 3.0 ml of medium were placed over the micropattern in a 35-mm tissue culture dish, then incubated at 37° C. After 3 h, the micropattern in a dish was washed once with PBS+/+. For SB+LDN condition: PBS+/+ was replaced with 3 N medium73 with 10 μM SB431542 (Stemgent 04-0010-10) and 0.2 μM LDN 193189 (Stemgent 04-0019). At days 3 and 5, the medium was replaced with the same fresh medium and incubated at 37° C. until day 7. For SB+BM P4 condition (neuruloid), PBS was replaced with HUESM with 10 μM SB431542 and 0.2 μM LDN 193189. At day 3, the medium was replaced with HUESM with 10 μM SB431542 and BM P4 (50 ng ml^−1 or indicated each experiment). At day 5, the medium was replaced with the same fresh medium then incubated until day 7.
(§1) Micropatterned cell culture on 96 well plates and imaging: The micropatterned cell culture on chips and neuruloid induction protocol was used with micropatterned 96 well plates (CYTOOPLATES Arena A, Arena 700). The neuruloid induction was modified so that all steps requiring media changes, cell dispensing as well as washes and incubations for immunofluorescence were performed with a EL406 washer/dispense robot. For cell seeding, a volume of 200 μl cell suspension at a density of 0.18M cells per ml was used. Plate imaging was performed with an InCell Analyzer 2000 high-content imager through a 4× lens.
(§2) A number of libraries consisting of 2080 compounds were screened in 96 well plates with micropatterned glass bottoms. In these plates, each well has around 27 individual neuruloids. During the screen, two plates of WT controls and two plates of HD untreated controls were reserved in order to have enough control data for training the deep neural network for later analysis. Compounds were applied to the test plates at day 0 of differentiation and re-applied at day 3 and day 5 during media change steps. Each compound was applied in a unique well, at a unique concentration of 10 uM. At day 7, plates were fixed and stained for DAPI, PAX6 and Phalloidin. After staining, plates were imaged and individual neuruloids in every well were segmented and labeled before being fed to the specific deep neural network.
Image analysis: image tiles acquired from micropatterned or plate culture experiments were stitched and background-corrected. A foreground mask was created to detect colonies by thresholding the DAPI channel and calculating alpha shapes in respect to colony size. Each detected colony was extracted from the corrected and stitched image.
Deep learning for quantification of phenotypic rescue: Multichannel WT and disease organoid images are split into training (70%) and validation (30%) images. A neural network (NN) is then trained on the training data set. The NN is coded using a machine-learning framework such as Pytorch. […]

[4] = test system: WT-20CAG and HD-56CAG neuruloids; test: Neuruloid toxicity (autoencoder-based toxicity score)
Procedure: as §1, §2
Deep learning for quantification of cytotoxicity: An autoencoder based method was used to asses toxicity. These unsupervised neural networks encode data and compress it in a low dimensional latent representation. The unsupervised nature of this machine learning method has the advantage that the autoencoder learns a representation of the data without any additional information about the data (such as that it is derived from wild type or disease cell lines), and is thus unbiased in estimating the toxicity of compounds. The representation of the data in terms of vectors also has the advantage that differences in the wild type and disease phenotype can be removed from the vector space, since this difference is not relevant in determining toxicity. Toxicity was determined in the following way: First, the difference between wild type and disease is removed from the latent space. Then, the distance from the mean vector of the wild type and disease phenotypes is calculated, and compared to the standard deviation of the wild type and disease phenotypes. This distance is defined as the toxicity.

potency (EC50) in rescuing HD neuruloids (HD-56CAG neuruloids [1])	SMILES	HTT levels reduction ability (expanded HTT and total HTT) ([2]; 56CAG and 72CAG neuruloids)	SOX17+ area at the periphery of HD gastruloids (HD-56CAG gastruloids)	rescue of HD neuruloids to the WT configuration (HD-56CAG neuruloids [3])	also measured
sub-micromolar	COc1cc(-c2cn(C)c(=O)c3cnccc23)cc(OC)c1CN(C)C [BI-7273]	no HTT reduction ability	significant reduction of the SOX17+ area	rescue HD neuruloids to the WT configuration	hit call in panel of BRD inhibitors (rescue efficacy above and toxicity below threshold) (HD-56CAG neuruloids [3]; listed as B17273): high enough efficacy while keeping a low toxicity and scores positively and hit
sub-micromolar	COc1cc(-c2cn(C)c(=O)c3cnccc23)cc(OC)c1CN(C)CC(=O)NCCOCCOCCNc1cccc2c1C(=O)N(C1CCC(=O)NC1=O)C2=O (stereo not shown) [dBRD9]	no HTT reduction ability	significant reduction of the SOX17+ area	rescue HD neuruloids to the WT configuration	toxic profile relative to Bromosporine ([4]; dose-dependent test, FIG. 9B): lower than Bromosporine

Further lines, the compound ahead of its results:

SMILES	potency (EC50) in rescuing HD neuruloids (HD-56CAG neuruloids [1])	HTT levels reduction ability (expanded HTT and total HTT) ([2]; 56CAG and 72CAG neuruloids)	SOX17+ area at the periphery of HD gastruloids (HD-56CAG gastruloids)	rescue of HD neuruloids to the WT configuration (HD-56CAG neuruloids [3])	also measured
COc1cc(-c2cn(C)c(=O)c3cnccc23)c(OC)cc1CN(C)C [BI-9564]	sub-micromolar	no HTT reduction ability	–	rescue HD neuruloids to the WT configuration	hit call in panel of BRD inhibitors (rescue efficacy above and toxicity below threshold) (HD-56CAG neuruloids [3]): did not score positively
CCOC(=O)Nc1cc(-c2ccc(C)c(NS(C)(=O)=O)c2)nn2c(C)nnc12 [Bromosporine]	sub-micromolar	reduced both expanded HTT and total HTT levels; also recorded: has HTT lowering activity	significant reduction of the SOX17+ area	rescue HD neuruloids to the WT configuration	rescue of HD phenotype, hit validation in small-scale experiment (HD-56CAG neuruloids [1]; 0.5 μM, staining SOX10, PAX6, N-CAD, qualitative): rescue of the disorganization induced by the HD gene; also recorded: rescued the HD phenotype; EC50 (HD-56CAG neuruloids [1]; Homo sapiens, dose response, 10 concentrations in triplicates, read-out: EC50 rescuing the neuruloids HD-56CAG phenotype): 120 nM; concentration at which fully effective (HD-56CAG neuruloids [1]; dose response, HD neuruloids): around 300 nM; reduction of expanded HTT levels ([2]; 1 μM, 56CAG and 72CAG neuruloids): more than 50%; reduction of expanded HTT levels ([2]; 5 μM, all backgrounds (56CAG and 72CAG neuruloids)): more than 75%; concentrations at which a toxic response started to occur ([4]; WT and HD-56CAG neuruloids): above 1 μM; toxicity in the window of concentration ([4]; between 0.3 μM and 1 μM): low toxicity; toxicity score ([4]; primary screen, 10 uM, HD neuruloids, toxic signature >3): 1.93; rescue of HD neuruloid phenotype, primary screen images (HD-56CAG neuruloids [3]): reversal of the HD phenotype towards the WT configuration; rescue of HD neuruloid phenotype, primary screen images (HD-56CAG neuruloids [3]; listed as bromosporine): rescues the HD neuruloids phenotype; phenotypic rescue (HD-56CAG neuruloids [3]; primary screen, 10 uM, HD neuruloids, AI score 0 = disease, 1 = WT, hit >0.95): 0.98
CCn1cc(-c2cccc(C(F)(F)F)c2)c2sc(C(=N)NC3CCS(=O)(=O)CC3)cc2c1=O [I-BRD9]	sub-micromolar	–	–	rescue HD neuruloids to the WT configuration	–
